Experimental data from ChEMBL document CHEMBL1201862, “PubChem BioAssay data set” (2004).
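Interpolation was linear, between the two tested concentrations surrounding the appropriate level; five concentrations were tested over 48 hours in 96-well plates. Here, GI50 denotes the concentration required for 50% inhibition of growth.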 Activity calls are given as the source filed them. Rule as the data show it: active = GI50 up to about 1.1 µM and inactive = higher.

Experiments:
Test in all cases: NCI-60 cell line screen, 48 h
786-0 = system: 786-0
A498 = system: A498
A549 = system: A549
ACHN = system: ACHN
BT-549 = system: BT-549
CAKI-1 = system: CAKI-1
CCRF-CEM = system: CCRF-CEM
COLO 205 = system: COLO 205
DU-145 = system: DU-145
EKVX = system: EKVX
HCC 2998 = system: HCC 2998
HCT-116 = system: HCT-116
HCT-15 = system: HCT-15
HL-60 = system: HL-60
HOP-62 = system: HOP-62
HOP-92 = system: HOP-92
HT-29 = system: HT-29
Hs-578T = system: Hs-578T
IGROV-1 = system: IGROV-1
K562 = system: K562
KM12 = system: KM12
LOX IMVI = system: LOX IMVI
M14 = system: M14
MCF7 = system: MCF7
MDA-MB-231 = system: MDA-MB-231
MDA-MB-435 = system: MDA-MB-435
MDA-N = system: MDA-N
MOLT-4 = system: MOLT-4
Malme-3M = system: Malme-3M
NCI-H226 = system: NCI-H226
NCI-H23 = system: NCI-H23
NCI-H460 = system: NCI-H460
NCI/ADR-RES = system: NCI/ADR-RES
OVCAR-3 = system: OVCAR-3
OVCAR-4 = system: OVCAR-4
OVCAR-5 = system: OVCAR-5
OVCAR-8 = system: OVCAR-8
PC-3 = system: PC-3
RPMI-8226 = system: RPMI-8226
RXF 393 = system: RXF 393
SF-268 = system: SF-268
SF-295 = system: SF-295
SF-539 = system: SF-539
SK-MEL-28 = system: SK-MEL-28
SK-MEL-2 = system: SK-MEL-2
SK-MEL-5 = system: SK-MEL-5
SK-OV-3 = system: SK-OV-3
SN12C = system: SN12C
SNB-19 = system: SNB-19
SNB-75 = system: SNB-75
SR = system: SR
SW-620 = system: SW-620
T47D = system: T47D
TK-10 = system: TK-10
U-251 = system: U-251
UACC-257 = system: UACC-257
UACC-62 = system: UACC-62
UO-31 = system: UO-31

For `N=C(N)NS(=O)(=O)c1ccc(NCc2cccc3c(=O)c4ccc(Cl)cc4oc23)cc1`, the GI50 (786-0) was 9.1 µM (inactive), the GI50 (A498) was > 9.02 µM (inactive) and the GI50 (A549) was > 6.75 µM (inactive). For the same compound, the GI50 (ACHN) was 7.6 µM (inactive), the GI50 (BT-549) was 7.18 µM (inactive) and the GI50 (CAKI-1) was 8.53 µM (inactive). For the same compound, the GI50 (CCRF-CEM) was 1.82 µM (inactive), the GI50 (COLO 205) was > 11.6 µM (inactive) and the GI50 (DU-145) was 5.57 µM (inactive). For the same compound, the GI50 (EKVX) was > 9.53 µM (inactive), the GI50 (HCC 2998) was > 15.3 µM (inactive) and the GI50 (HCT-116) was 2.99 µM (inactive). The GI50 (HCT-15) was 4.93 µM, the GI50 (HL-60) was 1.38 µM (inactive) and the GI50 (HOP-62) was > 10.2 µM (inactive). For the same compound, the GI50 (HOP-92) was 3.86 µM (inactive), the GI50 (HT-29) was 5.71 µM (inactive) and the GI50 (Hs-578T) was 4.37 µM (inactive). The GI50 (IGROV-1) was 3.43 µM (inactive), the GI50 (K562) was 2.84 µM (inactive) and the GI50 (KM12) was 3.25 µM (inactive). The GI50 (LOX IMVI) was 4.48 µM (inactive), the GI50 (M14) was 6.7 µM (inactive) and the GI50 (MCF7) was 7.45 µM (inactive). For the same compound, the GI50 (MDA-MB-231) was > 10.8 µM (inactive), the GI50 (MDA-MB-435) was 5.04 µM (inactive) and the GI50 (MDA-N) was 5.27 µM (inactive). The GI50 (MOLT-4) was 3.57 µM (inactive), the GI50 (Malme-3M) was 4.59 µM (inactive) and the GI50 (NCI-H226) was > 25 µM (inactive). For the same compound, the GI50 (NCI-H23) was 8.55 µM (inactive), the GI50 (NCI-H460) was 3.15 µM (inactive) and the GI50 (NCI/ADR-RES) was 7.8 µM (inactive). The GI50 (OVCAR-3) was > 8.47 µM (inactive), the GI50 (OVCAR-4) was > 11.2 µM (inactive) and the GI50 (OVCAR-5) was > 10.1 µM (inactive). The GI50 (OVCAR-8) was 7.52 µM (inactive), the GI50 (PC-3) was 1.4 µM (inactive) and the GI50 (RPMI-8226) was 4.61 µM (inactive). For the same compound, the GI50 (RXF 393) was 3.08 µM (inactive), the GI50 (SF-268) was 4.33 µM (inactive) and the GI50 (SF-295) was > 9.35 µM (inactive). The GI50 (SF-539) was 6.11 µM (inactive), the GI50 (SK-MEL-28) was > 12.2 µM (inactive) and the GI50 (SK-MEL-2) was > 10.4 µM (inactive). The GI50 (SK-MEL-5) was 9.4 µM (inactive), the GI50 (SK-OV-3) was > 10.3 µM (inactive) and the GI50 (SN12C) was > 9.27 µM (inactive). For the same compound, the GI50 (SNB-19) was 5.97 µM (inactive), the GI50 (SNB-75) was 3.08 µM (inactive) and the GI50 (SR) was 2.08 µM (inactive). For the same compound, the GI50 (SW-620) was 5.41 µM (inactive), the GI50 (T47D) was > 6.18 µM (inactive) and the GI50 (TK-10) was > 10.4 µM (inactive). The GI50 (U-251) was 5.22 µM (inactive), the GI50 (UACC-257) was 11.1 µM (inactive) and the GI50 (UACC-62) was 6.19 µM (inactive). The GI50 (UO-31) was 5.41 µM (inactive).
